Assay results reported in patent publication US10182500B2, “Curable composition for photoimprint, cured product, and method of producing film having pattern, optical component, circuit board, or electronic component using the composition” (CANON KABUSHIKI KAISHA, priority 2014, dated 2019).
Where two headings read alike, the source gives them in different places. One block for each compound: values may come before it.

Legend:
[1] = composition mainly composed of an acrylic monomer; cited from earlier work
[2] = 1 h
Description: (§1) An arbitrary amount of a photopolymerization initiator is weighed in a sample bottle at 23° C., and a condensable gas cooled to 5° C. to a liquid state is gradually added to the bottle until the photopolymerization initiator is completely dissolved. The sample bottle is capped and is left to stand in a refrigerator at 5° C. for 1 hour. The sample bottle is then subjected to visual observation whether the photopolymerization initiator is completely dissolved. The weight of the weighed photopolymerization initiator is divided by the sum of the weight of the photopolymerization initiator and the weight of the condensable gas in a liquid state, and the resulting quotient is expressed in percentage as the saturated solubility.
(§2) The sample bottle was capped and was left to stand in a refrigerator at 5° C. for 1 hour. The sample bottle was then visually observed.

[3] = Saturated solubility in liquid condensable gas (PFP), visual observation; conditions: for Saturated solubility: to PFP, liquid state at 5° C. and 1 atm
Description: as §1, §2

Compound: FC(F)CC(F)(F)F [1,1,1,3,3-pentafluoropropane]
- PFP dissolved in curable composition for photoimprint [1]: about 40 % by volume

- Saturated solubility [2]: <1.0 % by weight
- saturated solubility [2]: less than 1 % by weight
Compound: Cc1cc(C)c(C(=O)P(=O)(c2ccccc2)c2ccccc2)c(C)c1 [Formula (1), 2,4,6-trimethylbenzoyldiphenylphosphine oxide]

- Saturated solubility [3]: <1.0 % by weight
Compound: CC(C)c1ccc2sc3ccccc3c(=O)c2c1 [Formula (3), 2-isopropylthioxanthone]

- Saturated solubility [3]: <1.0 % by weight
Compound: CCN(CC)c1ccc(C(=O)c2ccc(N(CC)CC)cc2)cc1 [Formula (4), 4,4′-bis(diethylamino)benzophenone]

- saturated solubility ([3]; at 5° C. in PFP being a liquid state at 5° C. and 1 atm): higher than 2.67 % by weight
Compound: COC(OC)(C(=O)c1ccccc1)c1ccccc1 [Formula (6), benzyl dimethyl ketal]
